Experimental findings from patent publication US20100061969A1, “DIETARY SUPPLEMENT, ANTI-FATIGUE AGENT OR PHYSICAL ENDURANCE ENHANCER, FUNCTIONAL FOOD, OR COSMETIC” (ASAHI KASEI PHARMA CORPORATION, priority 2006, published 2010) are described below.

One series has as its system male Slc:ddY mice. Nature of the series: Test of anti-fatigue effect and physical endurance-enhancing effect (forced swimming with weight). It counts as in vivo, mouse. The settings on record: weight 8.5% of body weight. The source says: The following method can determine whether the functional food, or anti-fatigue agent and/or physical endurance enhancer, which contains the composition of the present invention, has an anti-fatigue effect or not and physical endurance-enhancing effect or not. That is, the effect of the present invention can be determined as follows: after preliminarily feeding, attaching a weight, which is equivalent to 8.5% of the body weight of each mouse, to each mouse in a group subjected to forced oral administration with an anti-fatigue agent containing the composition of the present invention (administered group) and to each mouse in a group administered with no agent (non-administration group) three weeks after administration; forcing the mice to swim; measuring a time until the head (nose) of each mouse completely sinks in water for 7 seconds due to distress; and comparing the results between the administered group and the non-administration group.
Six-week-old male Slc:ddY mice (Charles river laboratories Japan, Inc.) were preliminarily fed for 7 days and divided into four groups each including 10 mice.
The groups include: the group administered with water (control); the group administered with oxidized coenzyme Q10 at 50 mg/kg/day (Comparative Example 1, group administered with only CoQ10); the group administered with phosphatidylinositol at 100 mg/kg/day (Comparative Example 2, group administered with only phosphatidylinositol); and the group administered with oxidized coenzyme Q10 at 50 mg/kg/day and phosphatidylinositol at 100 mg/kg/day at the same time (Test Example, group administered with CoQ10+phosphatidylinositol), and forced oral administration was performed under the above-mentioned administration conditions five days a week. Three weeks after the administration, a weight was attached to each mouse (the weight is 8.5% of the body weight of the mouse), and the mouse was forced to swim. Then, a time until the head (nose) of the mouse completely sank for 7 seconds due to distress was measured. Note that, the oxidized coenzyme Q10 and phosphatidylinositol in Test Example were simultaneously administered.

The nature of series [1]: Coenzyme Q10 concentration in blood after forced oral administration (HPLC of plasma). The class given is in vivo, rat. The following applies: rats; for Average value of total CoQ10 concentration in blood: group = 1 week pre-administration. On the procedure: Seven-week-old male Slc:SD rats were preliminarily fed for 7 days, and forced oral administration (repeated oral administration) was performed for 4 rats with phosphatidylinositol at 100 mg/kg/day for 1 week. Then, forced oral administration was performed with phosphatidylinositol at 100 mg/kg/day and oxidized coenzyme Q10 at 100 mg/kg/day at the same time (PI-administered group). 0, 2, 4, and 6 hours after the forced oral administration with both phosphatidylinositol and coenzyme Q10, the whole blood was collected from the postcaval vein using heparinized injection needles and syringes under diethyl ether anesthesia. Collected blood was immediately centrifuged (4° C., 3,000 rpm, 10 minutes) to separate plasma. The separated plasma samples were used for an analysis of coenzyme Q10 by HPLC. As comparative examples, the above-mentioned procedures were performed for the group which was subjected to forced oral administration (repeated oral administration) with soybean lecithin at 500 mg/kg/day (100 mg/kg/day in terms of phosphatidylinositol) instead of phosphatidylinositol for 1 week and then to forced oral administration with both phosphatidylinositol at 100 mg/kg/day and oxidized coenzyme Q10 at 100 mg/kg/day at the same time (soybean lecithin-administered group), and the group which was subjected to forced oral administration with both phosphatidylinositol at 100 mg/kg/day and oxidized coenzyme Q10 at 100 mg/kg/day simultaneously without preliminary administration of phosphatidylinositol (PI non-administration group).

The mark [2] stands for this setting: Week 3, forced oral administration five days a week.

On to `COC1=C(OC)C(=O)C(C/C=C(\C)CC/C=C(\C)CC/C=C(\C)CC/C=C(\C)CC/C=C(\C)CC/C=C(\C)CC/C=C(\C)CC/C=C(\C)CC/C=C(\C)CCC=C(C)C)=C(C)C1=O` [CoQ10, oxidized coenzyme Q10, reference compound], for which the “Swimming time (average)” value worked out at 214 s in the series on male Slc:ddY mice (Week 0, 10 mice per group) and 358 s in the series with male Slc:ddY mice (setting [2]).

As to phosphatidylinositol, the “Swimming time (average)” value with male Slc:ddY mice (Week 0, 10 mice per group) was 212 s; in the series with male Slc:ddY mice (setting [2]), 333 s. Further, the “Average value of total CoQ10 concentration in blood” value is recorded as 70 nM in series [1] (0 hr after oral PI 100 mg/kg + oxidized CoQ10 100 mg/kg), 1,983 nM in series [1] (2 hr after oral PI 100 mg/kg + oxidized CoQ10 100 mg/kg), 1,927 nM in series [1] (4 hr after oral PI 100 mg/kg + oxidized CoQ10 100 mg/kg) and 686 nM in series [1] (6 hr after oral PI 100 mg/kg + oxidized CoQ10 100 mg/kg). In series [1] (1 week pre-administration), the “coenzyme Q10 concentrations in blood compared with the PI non-administration group” value is on record as “higher”.
